Measurements: patent US20140051714A1, “Modulators Of The GPR119 Receptor And The Treatment Of Disorders Related Thereto” (ARENA PHARMACEUTICALS, INC., priority 2011, published 2014)

How the values were obtained:
Male 129SVE mice [1] = assay: Oral glucose tolerance test (oGTT) in male 129SVE mice; format: in vivo; settings: for Plasma Glucose, Mean: n=6
Description: Male 129SVE mice (approximately 8 weeks old) were fasted for 18 h and randomly grouped (n=6) to receive a GPR119 agonist (Compound 1) at 3, 10, or 30 mg/kg body weight. The compound was delivered orally via a gavage needle (4 mL/kg) 30 min prior to glucose bolus (3 g/kg) (time=−30 min in FIG. 1), with a separate control group receiving vehicle (20% hydroxypropyl-beta-cyclodextrin (HPCD). At time 0 min, the glucose bolus was administered. Levels of blood glucose were assessed using a glucometer (One-Touch Ultra™, LifeScan) at time −30 min (prior to compound administration), at 0 min (at time when glucose bolus was given), and at 20, 40, 60, 120 min post glucose bolus. The plasma glucose level (Table A) and glucose excursion curve (FIG. 1) are shown. Glucose excursion reduction (area under the curve (AUC)) in compound treated animals relative to vehicle control is given in FIG. 2.

Male 129SVE mice [2] = assay: GIP release in male 129SVE mice (plasma total GIP, ELISA); format: in vivo; settings: 3 or 30 mg/kg p.o.; blood sample after 45 min
Description: Male 129SVE mice (approximately 8 weeks old) were fasted for 18 h and randomly grouped (n=6) to receive a GPR119 agonist (Compound 1) at 3 or 30 mg/kg body weight. Compound 1 was delivered orally via a gavage needle (4 mL/kg), and after 45 min a blood sample was collected to determine plasma total GIP levels. A separate control group received vehicle (PET (80% PEG: 10% Ethanol: 10% Tween80™)). Plasma GIP levels were determined using a GIP (total) ELISA kit from Millipore.

GPR119 receptor = biological target: T1, GPR119 receptor (Homo sapiens, UniProt Q8TDV5); assay: HTRF cAMP detection assay in CHO-K1 cells stably expressing the GPR119 receptor; format: cell-based
T1 construct: expressed in transfected cells
T1 sequence (Q8TDV5 2-335): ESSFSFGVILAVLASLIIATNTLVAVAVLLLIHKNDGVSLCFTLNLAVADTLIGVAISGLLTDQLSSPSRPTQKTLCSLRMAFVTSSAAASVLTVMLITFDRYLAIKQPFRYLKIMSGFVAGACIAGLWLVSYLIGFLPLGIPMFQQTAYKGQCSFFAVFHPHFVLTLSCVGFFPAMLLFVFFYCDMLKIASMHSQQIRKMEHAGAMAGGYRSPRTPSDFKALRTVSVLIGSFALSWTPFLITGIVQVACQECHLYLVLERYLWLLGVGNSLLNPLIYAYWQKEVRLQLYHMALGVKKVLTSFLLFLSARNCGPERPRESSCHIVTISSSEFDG
Description: GPR119 agonist, Compound 1, was evaluated in an HTRF® cAMP detection assay (Cisbio, cAMP Dynamic 2 Assay Kit; #62AM4PEJ) according to the manufacturer's instructions using CHO-K1 cells stably expressing the GPR119 receptor. CHO-K1 cells were transduced with a lentiviral vector encoding the nucleotide sequence of GPR119 (NCBI mRNA and protein reference sequences: NM_178471.2 & NP_848566). The N-terminus of the GPR119 nucleotide sequence was modified to replace the first, methionine-coding, codon with a nucleotide sequence coding for a standard, nine amino acid, hemagglutinin tag. Following transduction, cells expressing the GPR119 receptor were isolated and a single clone was isolated following standard dilution-cloning procedures. On the day of the assay, cultured CHO-GPR119 cells were harvested, suspended in assay buffer and plated into 384-well assay plates (PerkinElmer® Proxiplate® #6008280) at a density of 2,000 cells per well. A cAMP standard curve was added to each plate. Compound 1 was dissolved in DMSO, serially diluted in DMSO and then diluted in assay buffer before addition to the cells. Compound 1 was evaluated in triplicate, using 10-point, 5-fold serial dilutions starting at 10 μM. […] Plates were then incubated at room temperature for 1 h prior to reading. Time-resolved fluorescence measurements were collected on PerkinElmer Envision™ or BMG Pherastar™ microplate readers. […]

Male ZDF rats = assay: Oral glucose tolerance test (oGTT) in male ZDF rats; format: in vivo; settings: for % Inhibition of Glucose Excursion: 60 min prior to glucose bolus (3 g/kg), AUC relative to vehicle control
Description: Male ZDF rats were fasted for 18 h and randomly grouped (n=6) to receive the GPR119 agonist Compound 1 at 3, 10, or 30 mg/kg, the control compound Januvia (3 mg/kg), or a combination of Compound 1 (3 mg/kg) and Januvia (3 mg/kg). The compounds were delivered orally via a gavage needle (p.o., volume 4 mL/kg) 60 min prior to glucose bolus (3 g/kg) (time=−60 min in FIG. 4), with a separate group receiving vehicle (20% hydroxypropyl-beta-cyclodextrin (HPCD)) as control. At time 0 min. a glucose bolus was administered. Levels of blood glucose were assessed using a glucometer (One-Touch Ultra™, LifeScan) at time −60 min (prior to compound administration), at 0 min (at time when glucose bolus was given), and at 30, 60, 90, and 120 min post glucose bolus. The plasma glucose excursion curve (FIG. 4) is shown.

Male SD rats = assay: Gastric emptying in male SD rats (stomach content 6 h post-dosing); format: in vivo; settings: 3, 10, or 30 mg/kg orally
Description: Male SD rats were fasted for 18 h and randomly grouped (n=5). Fasted rats were allowed to access food for 30 min, and the amount of food consumed was recorded for each rat. At the end of the 30 min food intake, rats were put in cages without food and water, and dosed with Compound 1 at 3, 10, or 30 mg/kg, or vehicle control (20% HPCD) orally, or with exendin-4 (Ex-4) at 100 μg/kg i.p. Six hours post-dosing, rats were euthanized with CO2, and stomach content was determined.

CCc1cnc(N2CCC(Oc3ncnc(Oc4ccc(S(C)(=O)=O)nc4C)c3F)CC2)nc1 [Compound 1, 4-(1-(5-ethylpyrimidin-2-yl)piperidin-4-yloxy)-5-fluoro-6-(2-methyl-6-(methylsulfonyl)pyridin-3-yloxy)pyrimidine]
Plasma Glucose, Mean (Male 129SVE mice [1]; 3 mg/kg p.o., 20 min post glucose bolus): 282.8333 mg/dL
Plasma Glucose, Mean (Male 129SVE mice [1]; 3 mg/kg p.o., 40 min post glucose bolus): 301.6667 mg/dL
Plasma Glucose, Mean (Male 129SVE mice [1]; 3 mg/kg p.o., 60 min post glucose bolus): 270.6667 mg/dL
Plasma Glucose, Mean (Male 129SVE mice [1]; 3 mg/kg p.o., 120 min post glucose bolus): 151.3333 mg/dL
Plasma Glucose, Mean (Male 129SVE mice [1]; 3 mg/kg p.o., time 0 min relative to glucose bolus (3 g/kg)): 83.83 mg/dL
Plasma Glucose, Mean (Male 129SVE mice [1]; 3 mg/kg p.o., time −30 min relative to glucose bolus (prior to compound administration)): 75 mg/dL
Plasma Glucose, Mean (Male 129SVE mice [1]; 10 mg/kg p.o., 20 min post glucose bolus): 254.3333 mg/dL
Plasma Glucose, Mean (Male 129SVE mice [1]; 10 mg/kg p.o., 40 min post glucose bolus): 276.8333 mg/dL
Plasma Glucose, Mean (Male 129SVE mice [1]; 10 mg/kg p.o., 60 min post glucose bolus): 197.8333 mg/dL
Plasma Glucose, Mean (Male 129SVE mice [1]; 10 mg/kg p.o., 120 min post glucose bolus): 134 mg/dL
Plasma Glucose, Mean (Male 129SVE mice [1]; 10 mg/kg p.o., time 0 min relative to glucose bolus (3 g/kg)): 95.67 mg/dL
Plasma Glucose, Mean (Male 129SVE mice [1]; 10 mg/kg p.o., time −30 min relative to glucose bolus (prior to compound administration)): 75.67 mg/dL
Effect on blood glucose after challenge with glucose (Male 129SVE mice [1]; 3, 10, or 30 mg/kg p.o., 30 min prior to glucose bolus (3 g/kg)): lowered blood glucose
Effect on plasma glucose levels in oGTT (Male 129SVE mice [1]; dose of 10 mg/kg): significantly reduced plasma glucose levels
Effect on GIP release (plasma total GIP) (Male 129SVE mice [2]): stimulates the release of GIP
Agonist character at GPR119 (HTRF assay) (GPR119 receptor): full agonist
% Inhibition of Glucose Excursion (Male ZDF rats; 3 mg/kg p.o.): 19.1%
% Inhibition of Glucose Excursion (Male ZDF rats; 10 mg/kg p.o.): 30.2%
% Inhibition of Glucose Excursion (Male ZDF rats; 30 mg/kg p.o.): 60.7%
Effect on blood glucose after a challenge with glucose (Male ZDF rats; diabetic ZDF rats, 3, 10, or 30 mg/kg p.o.): lowered blood glucose
Effect on gastric emptying (Male SD rats): no significant effect on gastric emptying

N[C@@H](CC(=O)N1CCn2c(nnc2C(F)(F)F)C1)Cc1cc(F)c(F)cc1F [Januvia, 3(R)-amino-1-[3-(trifluoromethyl)-5,6,7,8-tetrahydro[1,2,4]triazolo[4,3-a]pyrazin-7-yl]-4-(2,4,5-trifluorophenyl)butan-1-one phosphate, reference compound]
% Inhibition of Glucose Excursion (Male ZDF rats; 3 mg/kg p.o.): 54.2%
